Target: T1, human Trk A kinase (Homo sapiens, UniProt P04629)
T1 construct: HIS; made in house; host or cells: SF9 insect cells
Test: Trk A kinase Alphascreen assay
Format: biochemical
Settings: intracellular domain of HIS-tagged human Trk A (aa 442-796), 70 μM ATP, 20 minutes, room temperature; read-out: Trk A inhibitory activity IC50
Experimental: Trk A kinase activity was measured for its ability to phosphorylate synthetic tyrosine residues within a generic polypeptide substrate using an Amplified Luminescent Proximity Assay (Alphascreen) technology (PerkinEilmer, 549 Albany Street, Boston, Mass.).
To measure Trk A kinase activity, the intracellular domain of a HIS-tagged human Trk A kinase (amino acids 442-796 of Trk A, Swiss-Prot Primary Accession Number P04629) was expressed in SF9 cells and purified using standard nickel column chromatography. After incubation of the kinase with a biotinylated substrate and adenosine triphosphate (ATP) for 20 minutes at room temperature, the kinase reaction was stopped by the addition of 30 mM ethylenediaminetetraacetic acid (EDTA). The reaction was performed in 384 well microtitre plates and the reaction products were detected with the addition of strepavidin coated Donor Beads and phosphotyrosine-specific antibodies coated Acceptor Beads using the EnVision Multilabel Plate Reader after an overnight incubation at room temperature.

T1 sequence (P04629 442-796): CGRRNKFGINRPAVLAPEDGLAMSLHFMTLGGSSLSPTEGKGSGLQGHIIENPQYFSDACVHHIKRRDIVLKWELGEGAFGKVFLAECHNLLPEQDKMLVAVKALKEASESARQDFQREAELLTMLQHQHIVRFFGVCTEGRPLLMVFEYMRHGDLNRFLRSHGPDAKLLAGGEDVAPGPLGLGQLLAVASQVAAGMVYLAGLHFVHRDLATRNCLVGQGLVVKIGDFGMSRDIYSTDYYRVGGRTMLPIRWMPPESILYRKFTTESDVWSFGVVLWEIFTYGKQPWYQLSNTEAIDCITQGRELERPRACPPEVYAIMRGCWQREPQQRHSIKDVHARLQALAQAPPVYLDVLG

IC50 | SMILES
859 nM | N#Cc1cc([N+](=O)[O-])c(Nc2cc(C3CC3)[nH]n2)cc1N[C@@H](CO)c1ccc(F)cc1 [Example 10, (R)-4-(5-Cyclopropyl-1H-pyrazol-3-ylamino)-2-(1-(4-fluorophenyl)-2-hydroxyethylamino)-5-nitrobenzonitrile]
426 nM | C[C@H](Nc1cc(Nc2cc(C3CC3)[nH]n2)c([N+](=O)[O-])cc1F)c1ccc(F)cc1 [Example 13, (S)—N^1-(5-Cyclopropyl-1H-pyrazol-3-yl)-4-fluoro-N^3-(1-(4-fluorophenyl)ethyl)-6-nitrobenzene-1,3-diamine]
1240 nM | C[C@H](Nc1cc(NCCO)c([N+](=O)[O-])c(Nc2cc(C3CC3)[nH]n2)c1)c1ccc(F)cc1 [Example 17, (S)-2-(3-(5-Cyclopropyl-1H-pyrazol-3-ylamino)-5-(1-(4-fluorophenyl)ethylamino)-2-nitrophenylamino)ethanol]

Reference: patent publication US20090227648A1, “PYRAZOLE DERIVATIVES USEFUL FOR THE TREATMENT OF CANCER” (AstraZeneca AB, priority 2004, published 2009)
